This note sets out measurements from patent US8741884B2, “Compounds for the treatment of hepatitis C” (priority 2010, dated 2014).

The subject of this test is HCV pseudoparticles (genotype 1a HCV E1 and E2 envelope, H77C isolate). In words: microbe, parasite or virus in culture. In kind it is cell-based.
Setting [1] is: Hepatitis C virus, Huh-7, 48 h, class symbol, HCV pseudoparticles genotype 1a (H77C), Huh7 cells, luciferase 2 days after infection, average of duplicates.
Where [2] appears, read: Hepatitis C virus, Huh-7, 48 h, numeric value, HCV pseudoparticles genotype 1a (H77C), Huh7 cells, luciferase 2 days after infection, average of duplicates.

Usually EC50 stands for the concentration that produces a half-maximal response.

Like-named read-outs stand apart in the source and are kept apart here.

On to `O=C(O)c1ccc2cc1OCCCCOC[C@H](c1ccccc1)Nc1nc(nc(OCC(F)(F)F)n1)N2` [Example 1004], for which, under “read-out: EC50”, the half-maximal effective concentration (EC50) is 1000 to 50000 nM. Turning to `CN(C)CC(C)(C)CNC(=O)c1ccc2cc1OCCCCCCOCC(c1ccccc1)Nc1nc(nc(OCC(F)(F)F)n1)N2` (stereo not shown) [Example 1807], the concentration for a half-maximal effect (EC50) under setting [1] is 1000 to 50000 nM. With `COC(=O)[C@H](CCNC(=O)OC(C)(C)C)NC(=O)c1ccc2cc1OCCCCCCOc1ccc(cc1)CNc1nc(nc(OCC(F)(F)F)n1)N2` [Example 1307], the EC50 under setting [1] is 0.1 to 100 nM. As to `O=C(O)CC1CCN(C(=O)c2ccc3cc2OCCCCCCCCOc2ccc(cc2)CNc2nc(nc(OCC(F)(F)F)n2)N3)C1` (stereo not shown) [Example 1132], under setting [1], the concentration giving a half-maximal response (EC50) lay within 1000 to 50000 nM.

For `CN(C)CC(C)(C)CNC(=O)c1ccc2cc1OCCCC(O)C(O)CCCOc1ccc(cc1)CNc1nc(nc(OCC(F)(F)F)n1)N2` (stereo not shown) [Example 1022], under setting [1], the concentration giving a half-maximal response (EC50) fell in the range of 0.1 to 100 nM. As to `CC(C)(C)OC(=O)N1CCC(CNC(=O)c2ccc3cc2OCCCCCCOc2ccc(cc2)CNc2nc(nc(OCC(F)(F)F)n2)N3)(C(=O)O)CC1` [Example 1557], under setting [1], the half-maximal effective concentration (EC50) lay in the range of 100 to 1000 nM. Still for that read-out and setting: the result for `O=C(O)CNC(=O)c1ccc2cc1OCCCCCCCCOc1ccc(cc1)CNc1nc(nc(OCC(F)(F)F)n1)N2` [Example 1131] reads 100 to 1000 nM. As for `CNC(=O)N1CCCOc2ccc(cc2)CNc2nc(nc(OCC(F)(F)F)n2)Nc2ccc(C(=O)NCC3(CN4CCCC4)CC3)c(c2)OCCC1` [Example 3007], under setting [1], the concentration giving a half-maximal response (EC50) lay in the range of 0.1 to 100 nM. Take `CC(C)(C)NC(=O)N1CCCCOc2cc(ccc2C(=O)NCC2(CN3CCCC3)CC2)Nc2nc(nc(OCC(F)(F)F)n2)NCc2ccc(cc2)OCCC1` [Example 3018]: the EC50 under setting [1] is 0.1 to 100 nM. As for `CC(C)(C)OC(=O)NC[C@H](NC(=O)c1ccc2cc1OCCCCCCOc1ccc(cc1)CNc1nc(nc(OCC(F)(F)F)n1)N2)C(N)=O` [Example 1700], the concentration giving a half-maximal response (EC50) under setting [1] is 0.1 to 100 nM. As to `COC(=O)C(NC(=O)c1ccc2cc1OCCOCCOCCOc1ccc(cc1)CNc1nc(nc(OCC(F)(F)F)n1)N2)C1CCCNC1` (stereo not shown) [Example 1607], the half-maximal effective concentration (EC50) under setting [1] fell in the range of 0.1 to 100 nM. Same read-out and setting: the result for `CCOC(=O)[C@H](CCCNC(=N)N)NC(=O)c1ccc2cc1OCCCCCCOc1ccc(cc1)CNc1nc(nc(OCC(F)(F)F)n1)N2` [Example 1317] reads 0.1 to 100 nM; that for `CN(C)CC(C)(C)CNC(=O)c1ccc2cc1OCCCCCCCOc1ccc(cc1)CNc1nc(nc(OCC(F)(F)F)n1)N2` [Example 1201], 0.1 to 100 nM. `CN(C)CC(C)(C)CNC(=O)c1ccc2cc1OCC=CCOc1ccc(cc1)CNc1nc(nc(OCC(F)(F)F)n1)N2` [Example 2007]: the EC50 reads like this: under setting [1], 100 to 1000 nM; under setting [2], 159 nM. Under setting [1], `CC(C)(C)OC(=O)N1CCCC1CC(NC(=O)c1ccc2cc1OCCCCCCOc1ccc(cc1)CNc1nc(nc(OCC(F)(F)F)n1)N2)C(=O)O` (stereo not shown) [Example 1407] yielded an EC50 of 0.1 to 100 nM. Consider `COC(=O)c1ccc2cc1OCCCC=CCCCOc1ccc(cc1)CNc1nc(nc(OCC(F)(F)F)n1)N2` [Example 1019], for which the EC50 (read-out: EC50) was in the range of 100 to 1000 nM. `N=C(N)NCCC[C@H](NC(=O)c1ccc2cc1OCCOCCOCCOc1ccc(cc1)CNc1nc(nc(OCC(F)(F)F)n1)N2)C(=O)O` [Example 1602] returned an EC50 under setting [1] of 0.1 to 100 nM.

Take `COC(=O)C(NC(=O)c1ccc2cc1OCCCCCCCCOc1ccc(cc1)CNc1nc(nc(OCC(F)(F)F)n1)N2)C1CCCNC1` (stereo not shown) [Example 1152]: under setting [1], the EC50 was in the range of 0.1 to 100 nM. `CC(C)(C)OC(=O)NCC[C@H](NC(=O)c1ccc2cc1OCCCCCCOc1ccc(cc1)CNc1nc(nc(OCC(F)(F)F)n1)N2)C(=O)O` [Example 1561] returned an EC50 under setting [1] of 0.1 to 100 nM. Take `C=C1COc2ccc(cc2)CNc2nc(nc(OCC(F)(F)F)n2)Nc2ccc(C(=O)O)c(c2)OC1` [Example 1005]: the EC50 under setting [1] was 1000 to 50000 nM. On the same count and under the same terms, the same measure for `COC(=O)CC1CCN(C(=O)c2ccc3cc2OCCCCCCCCOc2ccc(cc2)CNc2nc(nc(OCC(F)(F)F)n2)N3)C1` (stereo not shown) [Example 1103]: 1000 to 50000 nM. `COC(=O)N1CCCCOc2cc(ccc2C(=O)NCC2(CN3CCCC3)CC2)Nc2nc(nc(OCC(F)(F)F)n2)NCc2ccc(cc2)OCCC1` [Example 3019] had an EC50 under setting [1] of 0.1 to 100 nM and a half-maximal effective concentration (EC50) under setting [2] of 10.2 nM. Under setting [1], `O=C(NCC1CCNC1)c1ccc2cc1OCCCCCCCCOc1ccc(cc1)CNc1nc(nc(OCC(F)(F)F)n1)N2` (stereo not shown) [Example 1151] registered an EC50 of 0.1 to 100 nM.

Consider `O=C(O)c1ccc2cc1OCCCC=CCCCOc1ccc(cc1)CNc1nc(nc(OCC(F)(F)F)n1)N2` [Example 1020], for which the 50% effective concentration (EC50) (read-out: EC50) was in the range of 1000 to 50000 nM. As to `CC(C)(C)OC(=O)N[C@H](CCNC(=O)c1ccc2cc1OCCCCCCOc1ccc(cc1)CNc1nc(nc(OCC(F)(F)F)n1)N2)C(=O)O` [Example 1412], the concentration giving a half-maximal response (EC50) is 0.1 to 100 nM under setting [1] and 24.8 nM under setting [2].

In the case of `COC(=O)c1ccc2cc1OCCCCCCOc1ccc(cc1)CNc1nc(nc(OCC(F)(F)F)n1)N2` [Example 1301], the EC50 under setting [1] lay in the range of 100 to 1000 nM. Still for that read-out and setting: the same measure for `COC(=O)CNC(=O)c1ccc2cc1OCCCCCCCCOc1ccc(cc1)CNc1nc(nc(OCC(F)(F)F)n1)N2` [Example 1104]: 100 to 1000 nM; for `CC(C)(C)OC(=O)N1C[C@H](C(=O)O)[C@H](NC(=O)c2ccc3cc2OCCCCCCOc2ccc(cc2)CNc2nc(nc(OCC(F)(F)F)n2)N3)C1` [Example 1558]: 0.1 to 100 nM; for `CC(=O)N1CCCCOc2cc(ccc2C(=O)NCC2(CN3CCCC3)CC2)Nc2nc(nc(OCC(F)(F)F)n2)NCc2ccc(cc2)OCCC1` [Example 3022]: 0.1 to 100 nM. In turn, `O=C(NC1CCNC1=O)c1ccc2cc1OCCCCCCOc1ccc(cc1)CNc1nc(nc(OCC(F)(F)F)n1)N2` (stereo not shown) [Example 1324] registered a concentration giving a half-maximal response (EC50) under setting [1] of 0.1 to 100 nM. As to `CC(C)(C)OC(=O)NC(CNC(=O)c1ccc2cc1OCCCCCCOc1ccc(cc1)CNc1nc(nc(OCC(F)(F)F)n1)N2)C(=O)O` (stereo not shown) [Example 1409], under setting [1], the EC50 was in the range of 0.1 to 100 nM. Take `CC(C)(C)OC(=O)N1CCCOc2ccc(cc2)CNc2nc(nc(OCC(F)(F)F)n2)Nc2ccc(C(=O)O)c(c2)OCCC1` [Example 3002]: the EC50 under setting [1] fell in the range of 0.1 to 100 nM. Still for that read-out and setting: the result for `O=C(NCC1(CN2CCCC2)CC1)c1ccc2cc1OCCCNCCCCCCCCNc1nc(nc(OCC(F)(F)F)n1)N2` [Example 5002] reads 0.1 to 100 nM. For `O=C(NCCC[C@H](NC(=O)c1ccc2cc1OCCCCCCOc1ccc(cc1)CNc1nc(nc(OCC(F)(F)F)n1)N2)C(=O)O)OCc1ccccc1` [Example 1413], the concentration for a half-maximal effect (EC50) under setting [1] lay within 0.1 to 100 nM. `O=C(NCC1(CN2CCCC2)CC1)c1ccc2cc1OCCCCCCNc1nc(nc(OCC(F)(F)F)n1)N2` [Example 4001]: the concentration giving a half-maximal response (EC50) by setting is: under setting [1], 1000 to 50000 nM; under setting [2], 42600 nM.

Under setting [1], `CC(C)(C)OC(=O)N1CCC2(CCN(C(=O)c3ccc4cc3OCCCCCCCCOc3ccc(cc3)CNc3nc(nc(OCC(F)(F)F)n3)N4)C2)C1` (stereo not shown) [Example 1109] showed a half-maximal effective concentration (EC50) of 100 to 1000 nM. Same read-out and setting: the same measure for `CN(C)CC(C)(C)CNC(=O)c1ccc2cc1OCCCCOc1cccc(c1)CNc1nc(nc(OCC(F)(F)F)n1)N2` [Example 1802]: 0.1 to 100 nM; for `O=C(NCC1CCCN1)c1ccc2cc1OCCCCCCOc1ccc(cc1)CNc1nc(nc(OCC(F)(F)F)n1)N2` (stereo not shown) [Example 1503]: 0.1 to 100 nM; for `COC(=O)c1ccc2cc1OCCCCCCOc1cccc(c1)CNc1nc(nc(OCC(F)(F)F)n1)N2` [Example 1803]: 1000 to 50000 nM. Take `CCN1CCCOc2ccc(cc2)CNc2nc(nc(OCC(F)(F)F)n2)Nc2ccc(C(=O)NCC3(CN4CCCC4)CC3)c(c2)OCCC1` [Example 3011]: the EC50 under setting [1] was in the range of 0.1 to 100 nM.

On to `COC(=O)[C@H](CCN)NC(=O)c1ccc2cc1OCCCCCCOc1ccc(cc1)CNc1nc(nc(OCC(F)(F)F)n1)N2` [Example 1502], for which the 50% effective concentration (EC50) under setting [1] was 0.1 to 100 nM. Same read-out and setting: the same measure for `CC(C)(C)OC(=O)NC[C@H](NC(=O)c1ccc2cc1OCCCCCCOc1ccc(cc1)CNc1nc(nc(OCC(F)(F)F)n1)N2)C(=O)O` [Example 1560]: 0.1 to 100 nM; for `O=C(NCC1(CN2CCCC2)CC1)c1ccc2cc1OCCCCCCCCOc1ccc(cc1)CNc1nc(nc(OCC(F)(F)F)n1)N2` [Example 1102]: 0.1 to 100 nM; for `O=C(NC(C(=O)O)C1CCCNC1)c1ccc2cc1OCCOCCOCCOc1ccc(cc1)CNc1nc(nc(OCC(F)(F)F)n1)N2` (stereo not shown) [Example 1606]: 0.1 to 100 nM. Under setting [1], `N=C(N)NCCC[C@H](NC(=O)c1ccc2cc1OCCCCCCOc1ccc(cc1)CNc1nc(nc(OCC(F)(F)F)n1)N2)C(=O)O` [Example 1402] had a half-maximal effective concentration (EC50) of 0.1 to 100 nM.

In the case of `CN(C)CC(C)(C)CNC(=O)c1ccc2cc1OCCCCCCOc1cccc(c1)CNc1nc(nc(OCC(F)(F)F)n1)N2` [Example 1804], the half-maximal effective concentration (EC50) is 100 to 1000 nM under setting [1] and 239 nM under setting [2]. Compound `CC(C)(C)OC(=O)N1CCC(C(NC(=O)c2ccc3cc2OCCCCCCOc2ccc(cc2)CNc2nc(nc(OCC(F)(F)F)n2)N3)C(=O)O)CC1` (stereo not shown) [Example 1406] registered a 50% effective concentration (EC50) under setting [1] of 0.1 to 100 nM. `N=C(N)NC[C@H](NC(=O)c1ccc2cc1OCCCCCCOc1ccc(cc1)CNc1nc(nc(OCC(F)(F)F)n1)N2)C(=O)O` [Example 1403] came in with a half-maximal effective concentration (EC50) under setting [1] of 0.1 to 100 nM. On the same count and under the same terms, the result for `FC(F)(F)COc1nc2nc(n1)Nc1cccc(c1)OCC=CCOc1cccc(c1)N2` [Example 2003] reads 0.1 to 100 nM; that for `O=C(CNC(=O)c1ccc2cc1OCCCCCCCCOc1ccc(cc1)CNc1nc(nc(OCC(F)(F)F)n1)N2)NS(=O)(=O)C1CC1` [Example 1133], 100 to 1000 nM; that for `N=C(N)NCCC[C@@H](NC(=O)c1ccc2cc1OCCOCCOCCOc1ccc(cc1)CNc1nc(nc(OCC(F)(F)F)n1)N2)C(=O)O` [Example 1603], 0.1 to 100 nM. The same measure, in the same setting: the result for `CC[C@@H](C)[C@H](NC(=O)c1ccc2cc1OCCCCCCOc1ccc(cc1)CNc1nc(nc(OCC(F)(F)F)n1)N2)C(=O)O` [Example 1404] reads 0.1 to 100 nM; that for `O=C(NCC1(CN2CCCC2)CC1)c1ccc2cc1OCCCNCCCOc1cccc(c1)CNc1nc(nc(OCC(F)(F)F)n1)N2` [Example 3025], 0.1 to 100 nM. Regarding `CN(C)CC(C)(C)CNC(=O)c1ccc2cc1OCCCCCCCCOc1ccc(cc1)CNc1nc(nc(OCC(F)(F)F)n1)N2` [Example 1010], the half-maximal effective concentration (EC50) by setting is: under setting [1], 0.1 to 100 nM; under setting [2], 5.14 nM. In turn, `CC(C)(C)OC(=O)N1CCCC(NC(=O)c2ccc3cc2OCCCCCCCCOc2ccc(cc2)CNc2nc(nc(OCC(F)(F)F)n2)N3)C1` (stereo not shown) [Example 1012] yielded an EC50 under setting [1] of 0.1 to 100 nM.
